# From BindingDB's records for doi:10.1016/S0960-894X(01)80179-7 (1994)
# Target: Kappa-type opioid receptor (Cavia porcellus, UniProt P41144)
# Test: ChEBML_92409
# Text: Affinity at K opioid receptor on membranes prepared from guinea pig cerebellum by [3H]- 69593 displacement.
# Chain of Kappa-type opioid receptor (P41144 whole entry): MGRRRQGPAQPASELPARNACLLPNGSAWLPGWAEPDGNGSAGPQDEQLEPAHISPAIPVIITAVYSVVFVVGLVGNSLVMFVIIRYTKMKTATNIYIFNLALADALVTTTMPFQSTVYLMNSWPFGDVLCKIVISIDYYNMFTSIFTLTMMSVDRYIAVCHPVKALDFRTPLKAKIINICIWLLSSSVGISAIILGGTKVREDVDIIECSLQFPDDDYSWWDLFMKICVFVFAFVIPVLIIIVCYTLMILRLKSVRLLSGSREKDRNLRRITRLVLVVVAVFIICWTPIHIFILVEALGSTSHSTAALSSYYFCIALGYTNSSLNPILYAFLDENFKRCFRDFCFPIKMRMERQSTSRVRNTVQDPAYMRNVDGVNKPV
row,SMILES,Ki
1,CN(C(=O)C1c2ccccc2CCc2ccccc21)[C@H](CN1CC[C@H](O)C1)c1ccccc1,20 nM
2,Cc1ccc(C(C(=O)N(C)[C@H](CN2CC[C@H](O)C2)c2ccccc2)c2ccc(C)cc2)cc1,20 nM
3,CN(C(=O)C(c1ccccc1)c1ccccc1)[C@H](CN1CC[C@H](O)C1)c1cccc([N+](=O)[O-])c1,20 nM
